According to ChEMBL document CHEMBL5257018, “Novel Strategies for the Treatment of Pseudomonas aeruginosa Infections” (J Med Chem, 2016):
≈ marks a conversion by molar mass, not a printed value. Bridge positions count the residues as written; N and C are the ends. Square brackets hold non-standard residues; d marks the D form. Peptide text beside a SMILES is read from it. * marks the point of attachment. X1 = CC[C@@H](C)CCCCC(=O)*; Dab = NCC[C@H](N)C(=O)O

What was measured:
[1] = target: T1, Acyl-homoserine lactone acylase PvdQ (Pseudomonas aeruginosa (strain LESB58), UniProt Q9I194); test: Inhibition of Pseudomonas aeruginosa ATCC 15692 pvdQ
T1 sequence (Q9I194 whole entry): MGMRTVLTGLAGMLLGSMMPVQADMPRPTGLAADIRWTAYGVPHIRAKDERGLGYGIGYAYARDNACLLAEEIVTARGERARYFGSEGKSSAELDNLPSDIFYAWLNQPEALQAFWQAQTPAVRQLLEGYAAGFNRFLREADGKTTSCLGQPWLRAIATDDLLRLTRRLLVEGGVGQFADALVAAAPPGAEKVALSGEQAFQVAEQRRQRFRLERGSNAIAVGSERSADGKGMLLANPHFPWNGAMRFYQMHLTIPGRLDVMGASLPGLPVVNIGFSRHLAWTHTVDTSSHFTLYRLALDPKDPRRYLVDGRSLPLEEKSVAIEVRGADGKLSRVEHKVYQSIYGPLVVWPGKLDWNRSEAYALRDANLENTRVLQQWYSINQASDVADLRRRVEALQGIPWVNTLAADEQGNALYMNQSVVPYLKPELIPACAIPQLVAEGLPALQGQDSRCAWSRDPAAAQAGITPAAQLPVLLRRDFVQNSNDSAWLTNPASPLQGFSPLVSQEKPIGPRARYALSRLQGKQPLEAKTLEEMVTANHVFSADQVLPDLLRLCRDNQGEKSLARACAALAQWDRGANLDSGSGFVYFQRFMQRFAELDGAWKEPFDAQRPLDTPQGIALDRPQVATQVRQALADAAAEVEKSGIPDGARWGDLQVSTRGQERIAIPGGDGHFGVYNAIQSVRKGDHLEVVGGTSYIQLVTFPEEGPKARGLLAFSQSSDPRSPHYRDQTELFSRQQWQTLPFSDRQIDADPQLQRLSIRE

[2] = target: T1, Acyl-homoserine lactone acylase PvdQ; test: Inhibition of Pseudomonas aeruginosa ATCC 15692 pvdQ incubated for 4 hrs
[3] = target: T2, PA-I galactophilic lectin (Pseudomonas aeruginosa (strain ATCC 15692 / PAO1 / 1C / PRS 101 / LMG12228), UniProt Q05097); test: Binding affinity to Pseudomonas aeruginosa PAO1 LecA assessed as dissociation constant
T2 sequence (Q05097 whole entry): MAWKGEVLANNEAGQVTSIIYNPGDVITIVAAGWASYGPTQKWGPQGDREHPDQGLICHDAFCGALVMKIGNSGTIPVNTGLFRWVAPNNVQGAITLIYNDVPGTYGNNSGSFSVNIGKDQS

Pseudomonas aeruginosa [4] = test: Downregulation of c-di-GMP level in Pseudomonas aeruginosa PA14 planktonic cells harboring wspR gene mutation at 50 uM incubated for 24 hrs by HPLC analysis; assay type: functional
Elastase = Elastase (Pseudomonas aeruginosa (strain ATCC 15692 / PAO1 / 1C / PRS 101 / LMG12228), UniProt P14756); test: Inhibition of Pseudomonas aeruginosa LasB elastase using aminobenzoyl-Ala-Gly-Leu-Ala-p-nitro-benzyl-amide as substrate b microtiter-based fluorimetric assay
Pseudomonas aeruginosa [5] = test: Antimicrobial activity against Pseudomonas aeruginosa assessed as reduction in bacterial growth; assay type: functional, organism-based
Pseudomonas aeruginosa [6] = test: Antibacterial activity against Pseudomonas aeruginosa PAO1 assessed as reduction in bacterial growth; assay type: functional
[7] = Antagonist activity at Pseudomonas aeruginosa MvfR
[8] = target: T3, Transcriptional activator protein LasR (Pseudomonas aeruginosa (strain ATCC 15692 / PAO1 / 1C / PRS 101 / LMG12228)) (UniProt P25084); test: Inhibition of Pseudomonas aeruginosa PAO1 LasR at 200 uM relative to control
T3 sequence (whole entry): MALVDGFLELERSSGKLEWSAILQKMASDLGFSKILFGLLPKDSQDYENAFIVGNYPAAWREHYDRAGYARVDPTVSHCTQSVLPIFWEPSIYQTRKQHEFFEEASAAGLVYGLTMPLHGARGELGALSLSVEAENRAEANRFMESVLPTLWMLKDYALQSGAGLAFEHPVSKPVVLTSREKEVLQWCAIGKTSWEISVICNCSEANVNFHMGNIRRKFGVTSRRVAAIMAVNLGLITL

[9] = Half life in mouse; assay type: ADME, organism-based; details: in vivo
[10] = Inhibition of bacterial FabH; set-up: species or system Bacteria
Pseudomonas aeruginosa [11] = test: Antibiofilm activity against Pseudomonas aeruginosa assessed as reduction in biofilm formation at 100 uM; assay type: functional; set-up: scale not given: the % may be the effect or the level left
Pseudomonas aeruginosa [12] = test: Antibiofilm activity against Pseudomonas aeruginosa assessed as reduction in biofilm formation; assay type: functional, organism-based
Homo sapiens = species: Homo sapiens; test: Inhibition of elastase (unknown origin) at 10 uM relative to control
Pseudomonas aeruginosa [13] = test: Antimicrobial activity against polymyxin resistant Pseudomonas aeruginosa assessed as reduction in bacterial growth; assay type: functional
Pseudomonas aeruginosa [14] = test: Inhibition of Pseudomonas aeruginosa PAO1 Pyocyanin at 100 uM relative to control

Chain of Elastase (P14756 whole entry): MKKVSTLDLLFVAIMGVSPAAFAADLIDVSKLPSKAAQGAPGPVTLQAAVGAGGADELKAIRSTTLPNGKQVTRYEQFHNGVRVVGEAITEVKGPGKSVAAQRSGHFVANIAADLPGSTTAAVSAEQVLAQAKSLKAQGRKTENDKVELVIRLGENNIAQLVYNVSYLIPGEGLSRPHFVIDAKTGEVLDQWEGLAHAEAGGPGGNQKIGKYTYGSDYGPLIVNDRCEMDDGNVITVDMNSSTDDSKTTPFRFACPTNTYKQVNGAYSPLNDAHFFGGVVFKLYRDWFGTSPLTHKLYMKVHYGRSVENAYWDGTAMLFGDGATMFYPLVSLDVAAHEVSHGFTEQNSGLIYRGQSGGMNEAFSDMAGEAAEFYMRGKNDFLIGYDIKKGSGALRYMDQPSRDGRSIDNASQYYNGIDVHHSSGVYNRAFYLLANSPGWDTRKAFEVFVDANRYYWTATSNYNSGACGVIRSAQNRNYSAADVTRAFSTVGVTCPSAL

**Q.** For `C=CCNc1ncnc2ccc(Br)cc12`, which IC50 [1] is on record?
**A.** 130000 nM

**Q.** What about the IC50 [2] of the same compound?
**A.** < 20 nM

**Q.** Which Kd [3] does the source give for `CC(=O)N[C@H]1C(O)O[C@H](CO)[C@@H](O[C@@H]2O[C@@H](C)[C@@H](O)[C@@H](O)[C@@H]2O)[C@@H]1O[C@@H]1O[C@H](CO)[C@H](O)[C@H](O)[C@H]1O` (stereo partly specified) here?
**A.** 212 nM

**Q.** With `O=c1c2ccccc2[se]n1-c1ccccc1` [EBSELEN] as the compound, how does the Activity (Pseudomonas aeruginosa [4]) read?
**A.** 80%

**Q.** Which IC50 (Elastase) does the source give for `O=C(Nc1ccc(O)c(=O)cc1)Nc1cccc2ccccc12` here?
**A.** 1000 nM

**Q.** With `CC(=O)Oc1cccc(C(=O)NCCCC(CCCNC(=O)c2cccc(OC(C)=O)c2OC(C)=O)(CCCNC(=O)c2cccc(OC(C)=O)c2OC(C)=O)NC(=O)CCC(=O)N[C@@H](C(=O)N[C@@H]2C(=O)N3[C@@H]2SC(C)(C)[C@@H]3C(=O)O)c2ccccc2)c1OC(C)=O` as the compound, how does the MIC (Pseudomonas aeruginosa [5]) read?
**A.** 0.39 µM (≈ 0.505 µg/mL)

**Q.** And the MIC (Pseudomonas aeruginosa [6])?
**A.** > 200 µM

**Q.** With `CC(=O)SCC(=O)Nc1cc(C)c(Br)cc1Cl` as the compound, how does the IC50 (Elastase) read?
**A.** 6000 nM

**Q.** Which IC50 [7] does the source give for `Nc1nnc(-c2cccc(C(F)(F)F)c2)o1` here?
**A.** 250 nM

**Q.** With `O=C(Cc1ccc(Br)cc1)N[C@H]1CCOC1=O` as the compound, how does the inhibition [8] read?
**A.** 77%

**Q.** Which half-life [9] does the source give for `CO[C@H]1O[C@H](CNS(=O)(=O)c2c(C)cc(C)cc2C)[C@@H](O)[C@H](O)[C@@H]1O` here?
**A.** 5 min

**Q.** What about the Kd [3] of the same compound?
**A.** 3300 nM

**Q.** With `N=C(N)NCCC[C@H](NC(=O)COCCOCCNC(=O)[C@H](CCCCNC(=O)[C@@H]1C[C@H](NC(=O)[C@H](Cc2cn(CCNC(=O)c3ccc(S[C@@H]4O[C@H](CO)[C@H](O)[C@H](O)[C@H]4O)cc3)nn2)NC(=O)COc2ccccc2)CN1)NC(=O)[C@@H]1C[C@H](NC(=O)[C@H](Cc2cn(CCNC(=O)c3ccc(S[C@@H]4O[C@H](CO)[C@H](O)[C@H](O)[C@H]4O)cc3)nn2)NC(=O)COc2ccccc2)CN1)C(N)=O` as the compound, how does the Kd [3] read?
**A.** 82 nM

**Q.** With `CCN(CC)S(=O)(=O)c1cccc(C(=O)Nc2cccc(O)c2C(=O)O)c1` as the compound, how does the IC50 [10] read?
**A.** 35000 nM

**Q.** With `O=C(Nc1ccc(Nc2ccccc2)cc1)c1ccccc1` as the compound, how does the Activity (Pseudomonas aeruginosa [11]) read?
**A.** 22%

**Q.** What about the IC50 (Pseudomonas aeruginosa [12]) of the same compound?
**A.** 26000 nM

**Q.** For `COC(=O)c1cn([C@@H]2O[C@H](CO)[C@@H](O[C@@H]3O[C@@H](C)[C@@H](O)[C@@H](O)[C@@H]3O)[C@H](O)[C@H]2NC(C)=O)nn1`, which Kd [3] is on record?
**A.** 290 nM

**Q.** With `O=c1onc2n1-c1cc(Br)ccc1OC2` as the compound, how does the IC50 [1] read?
**A.** 65000 nM

**Q.** What about the IC50 [2] of the same compound?
**A.** < 20 nM

**Q.** For `CCCCCCCCCC(=O)CC(=O)Nc1ccccc1O`, which inhibition (Homo sapiens) is on record?
**A.** 50%

**Q.** For `CO[C@H]1O[C@H]([C@@H](O)CNS(=O)(=O)c2c(C)cc(C)cc2C)[C@@H](O)[C@H](O)[C@@H]1O`, which Kd [3] is on record?
**A.** 100 nM

**Q.** For `CC[C@@H](C)CCCCC(=O)N[C@@H](CCN)C(=O)N[C@H](C(=O)N[C@@H](CCN)C(=O)N[C@H]1CCNC(=O)[C@H]([C@@H](C)O)NC(=O)[C@H](CCN)NC(=O)[C@H](CCN)NC(=O)[C@H](CC(C)C)NC(=O)[C@@H](Cc2ccccc2)NC(=O)[C@H](CCN)NC1=O)[C@@H](C)O` (X1-[Dab]T[Dab][Dab][Dab][dF]L[Dab][Dab]T; lactam 4-C), which MIC (Pseudomonas aeruginosa [13]) is on record?
**A.** < 2 µg/mL

**Q.** Which results are given for `CC(=O)Oc1cccc(C(=O)NCCCC(CCCNC(=O)c2cccc(OC(C)=O)c2OC(C)=O)(CCCNC(=O)c2cccc(OC(C)=O)c2OC(C)=O)NC(=O)CCC(=O)N[C@@H](C(=O)N[C@@H]2C(=O)N3[C@@H]2SC(C)(C)[C@@H]3C(=O)O)c2ccc(O)cc2)c1OC(C)=O`?
**A.** MIC (Pseudomonas aeruginosa [5]): 0.39 µM (≈ 0.511 µg/mL); MIC (Pseudomonas aeruginosa [6]): > 200 µM

**Q.** With `C[C@@H]1O[C@H](C)[C@@H](O)[C@H](O)[C@@H]1O` as the compound, how does the Kd [3] read?
**A.** 17000 nM

**Q.** With `CCCCCCCCCNC(=O)CC(=O)c1ccccc1` as the compound, how does the inhibition (Pseudomonas aeruginosa [14]) read?
**A.** 90%
